Experimental data as given in US6267968A, “MDP derivatives and conjugates having haematipoietic function stimulating activity, and compositions containing same” (Vacsyn S.A., priority 1995, dated 2001).
Entries after “also recorded” stand apart in the source; their conditions may differ.

Key:
[1] = tested on: circulating myelocytes (HSC); experiment: Mobilization of HSC after combined oral treatment with AZT and Muradimetide (Example 4); format: in vivo, mice; conditions: for effect on the mobilization of HSC (myelocyte count, FIG. 11): MDM 25 mg/kg, AZT 50 mg/kg or mixture, oral, days 0-3 and 7-10 (2 weeks); for No. of circulating myelocytes: p.o., one compound alone at 0 h (AZT 50 mg/Kg or Muradimetide 25 mg/Kg), 24 hours after 4 daily administrations
Protocol: Table 3 below and FIG. 11 show the effect of an oral treatment of mice with Muradimetide before, at the same time as or after AZT administered at 50 mg per kg, on the number of circulating myelocytes tested 24 hours after 4 daily administrations.
The mean number of circulating myelocytes before the treatment lies between 3 and 15×10^4 cells per ml in the 5 groups.
The "P-value" was calculated by the Mann Whitney U Rank test.

[2] = tested on: circulating myelocytes; experiment: Comparison of oral Muradimetide with MDPA after intravenous AZT, myelocyte count (Example 10); format: in vivo, female Swiss mice; conditions: AZT 40 mg per kg i.v. days 0-3; MDPA 25 mg per kg 4 hours before AZT
Protocol: In this experiment, female Swiss mice were treated intravenously with 40 mg per kg of AZT on days 0, 1, 2 and 3. Groups of 5 mice received on the same four days, and 4 hours before AZT, either physiological saline, or MDPA at a dose of 25 mg per kg or Muradimetide orally at a dose of 25 mg per kg. Myelocyte counts were carried out on days 0, 2, 3, 4 and 8. The asterisks above the histograms have the same meaning as in the previous diagrams.

[3] = tested on: normal circulating leukocytes (predominantly neutrophils and lymphocytes) and immature circulating leukocytes (myelocytes); experiment: Muradimetide administered alone intravenously for 4 consecutive days, circulating cell counts (Example 1); format: in vivo, mice; conditions: for No. of Lymphocytes / No. of Myelocytes / No. of Neutrophils: 25 mg/kg i.v.; for No. of Lymphocytes / No. of Myelocytes / No. of Neutrophils / No. of Leukocytes: 4 consecutive days; for No. of Leukocytes: Muradimetide 25 mg/kg i.v.
Protocol: Table 1 below depicts the leukocyte, neutrophil, lymphocyte and myelocyte counts as a function of the time after treatment with Muradimetide alone administered at a dose of 25 mg/kg. The treatment is performed for 4 consecutive days by intravenous injection.

[4] = tested on: circulating HSC (GM-CFU, LPP-CFU, HPP-CFU, CAFC, LTC-IC); experiment: Mobilization of HSC by stage of differentiation, culture of blood mononuclear cells (Example 7); format: in vivo, Balb/c mice; conditions: AZT 50 mg/kg, MDM 25 mg/kg or mixture once daily for three days; blood 24 hours after last administration
Protocol: In all cases, the culture conditions, especially their duration, were chosen to permit an optimal detection of the different populations in question. For this study, the effect of injecting saline (X--), AZT at 50 mg/kg, MDM at 25 mg/kg and the mixture of the two on the number of circulating HSC were compared. The mononuclear cells after purification were cultured for 5 days in order to count the GM-CFU (for granulocyte-macrophage colony forming units), for 28 days to count the low proliferating potential (LPP) colony forming units and the high proliferating potential (HPP) CFU. The CAFC were counted after 14 days of culture. The LTC-IC after 28 days. The results are presented in FIGS. 14a, 14b, 14c and 14d, respectively. The mice (10 Balb/c per group) received once daily and for three consecutive days either physiological saline, or AZT, or MDM or the mixture of the two under the above dose conditions. Twenty-four hours after the last administration, the blood of all the mice in each group was collected. For the experiments depicted in FIGS. 14a, 14b and 14c, the mononuclear cells were then separated on density gradients and cultured in a semisolid medium for a period of 5 days for the GM-CFU and 28 days for the LPP-CFU. […]

[5] = tested on: circulating neutrophils, leukocytes, monocytes and myelocytes; experiment: Comparison of Muradimetide and GM-CSF after intravenous AZT (Example 9); format: in vivo, female Swiss mice; conditions: AZT 40 mg per kg i.v. days 0-3; for HSC in the blood (circulating myelocytes, FIG. 7) / leukocyte and neutrophil counts: Muradimetide 25 mg per kg or mGM-CSF 125 μg per kg i.v. 4 hours before
Protocol: FIGS. 4, 5, 6 and 7 show the effect of a treatment of mice with Muradimetide or with mGM-CSF on the changes in the circulating neutrophils, in the circulating leukocytes or in the circulating monocytes or in the circulating myelocytes, respectively, after an intravenous administration of AZT.
Female Swiss mice were treated intravenously with 40 mg per kg of AZT on days 0, 1, 2 and 3. The groups of mice (5 per group) receive, 4 hours before AZT, either physiological saline, or Muradimetide at 25 mg per kg or mGM-CSF at 125 μg per kg intravenously. Counts are done on days 0, 2, 3, 4 and 8. The asterisks above the histograms indicate that there is a significant difference in the count compared to the values obtained before the treatment on day 0.

[6] = tested on: circulating leukocytes, neutrophils and myelocytes; experiment: Oral Muradimetide with nonmyelotoxic or myelotoxic intravenous doses of AZT, cell counts (Example 8); format: in vivo, female Swiss mice; conditions: Muradimetide 25 mg per kg orally 4 hours before AZT i.v. 5 or 40 mg per kg, days 0-3
Protocol: In this experiment female Swiss mice were injected intravenously with AZT at a dose of 5 or 40 mg per kg on days 0, 1, 2 and 3. On each of the 4 days, and 4 hours before the administration of AZT, groups of mice consisting of 5 individuals received orally either buffer or Muradimetide at a dose of 25 mg per kg.
Cell counts are done on days 0, 1, 2, 3, 4 and 7.
FIG. 3 represents the same experiment in which the myelocytes are counted.

[7] = tested on: red cells and platelets; experiment: 7-day oral treatment with AZT, muradimetide or both, red cell and platelet counts (Example 3); format: in vivo; conditions: p.o. once daily for 7 consecutive days; AZT 100 mg/kg, muradimetide 50 mg/kg or both; counts up to day 10
Protocol: The effect of a 7-day treatment on the number of red cells and of platelets is seen in FIGS. 9 and 10, respectively. The counts are shown as a percentage of those obtained on day 0. Female BALB/c mice (5 per group) are treated once daily for 7 consecutive days with 100 mg/kg of AZT (Δ), 50 mg/kg of muradimetide (.quadrature.) or simultaneously with 100 mg/kg of AZT and 50 mg/kg of muradimetide (.largecircle.). Platelet or red cell counts were done on day 0 and up to 10 days following the beginning of the treatment. No toxicity on the platelets is seen, either with AZT, muradimetide or the mixture of these compounds. The upward trend in their number is apparent between days 4 and 5.

[8] = tested on: circulating leukocytes, neutrophils and myelocytes; experiment: Intravenous or oral Muradimetide, cell counts modified by intravenous AZT (Example 2); format: in vivo, male CDI mice
Protocol: Treatment with AZT alone classically induces a decrease in the number of circulating leukocytes and neutrophils. This decrease is followed by a restoration occurring approximately 4 to 7 days after the beginning of the treatment. When Muradimetide has been administered systemically or orally after a treatment with 40 mg/kg of AZT, there is no fall in the number of cells and, on the contrary, there is a multiplication by at least 1.5 of the number of leukocytes and a tripling of the number of neutrophils, this already occurring after 4 days.
Male CDI mice (5 per group) were injected with AZT at a dose of 40 mg per kg on days 0 to 3. Muradimetide is administered on the same days at a dose of 10 mg per kg intravenously or 50 mg per kg orally. Cell counts are done an day 0 (before the treatment) and on days 3 and 4.

[9] = Muradimetide i.v. 10 mg/kg with AZT i.v. 40 mg/kg, day 0 (before the treatment)
[10] = Muradimetide i.v. 10 mg/kg with AZT i.v. 40 mg/kg, day 3
[11] = Muradimetide i.v. 10 mg/kg with AZT i.v. 40 mg/kg, day 4
[12] = Muradimetide p.o. 50 mg/Kg with AZT i.v. 40 mg/kg, day 0 (before the treatment)
[13] = Muradimetide p.o. 50 mg/Kg with AZT i.v. 40 mg/kg, day 3
[14] = Muradimetide p.o. 50 mg/Kg with AZT i.v. 40 mg/kg, day 4
[15] = Muradimetide systemically or orally after treatment with 40 mg/kg of AZT, after 4 days

Cc1cn([C@H]2C[C@H](N=[N+]=[N-])[C@@H](CO)O2)c(=O)[nH]c1=O [AZT, 3'-azido-3'-deoxythymidine, reference compound]
effect on the mobilization of HSC (myelocyte count, FIG. 11) [1]: no effect | No. of circulating myelocytes [1]: 6 ± 8 × 10^4 /ml

CC(=O)N[C@H]1C(O)O[C@H](CO)[C@@H](O)[C@@H]1O[C@H](C)C(=O)N[C@@H](C)C(=O)N[C@H](CCC(=O)O)C(=O)O (stereo partly drawn) [MDPA, Nac--Mur--L--Ala--D--Glu]
antimyelotoxic effect and mobilization of HSC in the blood circulation (myelocyte count, FIG. 8) [2]: not occurring

COC(=O)CC[C@@H](NC(=O)[C@H](C)NC(=O)[C@@H](C)O[C@H]1[C@H](O)[C@@H](CO)OC(O)[C@@H]1NC(C)=O)C(=O)OC (stereo partly drawn) [Muradimetide, Nac--Mur--L--Ala--D--Glu--[OCH3]--OCH3]
No. of Lymphocytes ([3]; day 0): 38 ± 12 × 10^5 /ml | No. of Myelocytes ([3]; day 0): 7 ± 6 × 10^4 /ml | No. of Neutrophils ([3]; day 0): 11 ± 3 × 10^5 /ml | No. of Lymphocytes ([3]; day 2): 41 ± 17 × 10^5 /ml | No. of Myelocytes ([3]; day 2): 8 ± 8 × 10^4 /ml | No. of Neutrophils ([3]; day 2): 10 ± 3 × 10^5 /ml | No. of Lymphocytes ([3]; day 3): 35 ± 13 × 10^5 /ml | No. of Myelocytes ([3]; day 3): 40 ± 5 × 10^4 /ml | No. of Neutrophils ([3]; day 3): 13 ± 5 × 10^5 /ml | No. of Lymphocytes ([3]; day 4): 34 ± 8 × 10^5 /ml | No. of Myelocytes ([3]; day 4): 72 ± 27 × 10^4 /ml | No. of Neutrophils ([3]; day 4): 12 ± 4 × 10^5 /ml | No. of Lymphocytes ([3]; day 7): 38 ± 10 × 10^5 /ml | No. of Myelocytes ([3]; day 7): 4 ± 4 × 10^4 /ml | No. of Neutrophils ([3]; day 7): 12 ± 4 × 10^5 /ml | No. of Leukocytes ([3]; day 2): 52 ± 12 × 10^5 /ml | No. of Leukocytes ([3]; day 3): 52 ± 17 × 10^5 /ml | No. of Leukocytes ([3]; day 4): 52 ± 15 × 10^5 /ml | No. of Leukocytes ([3]; day 7): 50 ± 13 × 10^5 /ml | No. of Leukocytes ([3]; day of measurement 0): 50 ± 14 × 10^5 /ml | increase in the number of circulating myelocytes ([3]; Muradimetide administered alone, days 3 and 4): highly significant | effect on the number of circulating HSC (GM-CFU, LPP-CFU, HPP-CFU, CAFC; FIGS. 14a-14d) [4]: clearly apparent | effect on the mobilization of HSC (myelocyte count, FIG. 11) [1]: significant effect | No. of circulating myelocytes [1]: 17 ± 15 × 10^4 /ml | HSC in the blood (circulating myelocytes, FIG. 7) [5]: very strong elevation; also recorded: mobilizes HSC | leukocyte and neutrophil counts [5]: markedly pronounced effect | time of maximum effect on leukocyte, neutrophil and myelocyte counts (FIGS. 1-3) [6]: 4 days | toxicity on the platelets [7]: No toxicity | Leukocytes ([8]; Muradimetide i.v. 10 mg/kg days 0-3 with AZT i.v. 40 mg/kg, day 0 (before the treatment)): 6.0 ± 3.4 × 10^6 /ml | Leukocytes ([8]; Muradimetide i.v. 10 mg/kg days 0-3 with AZT i.v. 40 mg/kg, day 3): 5.9 ± 2.9 × 10^6 /ml | Leukocytes ([8]; Muradimetide i.v. 10 mg/kg days 0-3 with AZT i.v. 40 mg/kg, day 4): 7.6 ± 1.6 × 10^6 /ml | Myelocytes [8, 9]: 5 ± 7 × 10^4 /ml | Neutrophils [8, 9]: 2.0 ± 1.3 × 10^6 /ml | Myelocytes [8, 10]: 145 ± 83 × 10^4 /ml | Neutrophils [8, 10]: 1.5 ± 0.8 × 10^6 /ml | Myelocytes [8, 11]: 117 ± 46 × 10^4 /ml | Neutrophils [8, 11]: 4.6 ± 1.5 × 10^6 /ml | Leukocytes ([8]; Muradimetide p.o. 50 mg/Kg days 0-3 with AZT i.v. 40 mg/kg, day 0 (before the treatment)): 4.8 ± 0.4 × 10^6 /ml | Leukocytes ([8]; Muradimetide p.o. 50 mg/Kg days 0-3 with AZT i.v. 40 mg/kg, day 3): 6.1 ± 1.4 × 10^6 /ml | Leukocytes ([8]; Muradimetide p.o. 50 mg/Kg days 0-3 with AZT i.v. 40 mg/kg, day 4): 8.1 ± 2.9 × 10^6 /ml | Myelocytes [8, 12]: 14 ± 13 × 10^4 /ml | Neutrophils [8, 12]: 1.4 ± 0.5 × 10^6 /ml | Myelocytes [8, 13]: 123 ± 55 × 10^4 /ml | Neutrophils [8, 13]: 1.6 ± 0.5 × 10^6 /ml | Myelocytes [8, 14]: 138 ± 59 × 10^4 /ml | Neutrophils [8, 14]: 4.3 ± 2.47 × 10^6 /ml | increase of the number of neutrophils [8, 15]: tripling | multiplication of the number of leukocytes [8, 15]: at least 1.5 | percentage of myelocytes or of promyelocytes ([8]; with AZT 40 mg/kg i.v., irrespective of mode of administration of Muradimetide): spectacular increase

B1: GM-CSF: recombinant mouse GM-CSF, lymphokine customarily used to stimulate myelocytes (protein, UniProt P01587 18-141, looked up)
Granulocyte-macrophage …: APTRSPITVTRPWKHVEAIKEALNLLDDMPVTLNEEVEVVSNEFSFKKLTCVQTRLKIFEQGLRGNFTKLKGALNMTASYYQTYCPPTPETDCETQVTTYADFIDSLKTFLTDIPFECKKPGQK
HSC in the blood (circulating myelocytes, FIG. 7) [5]: does not do so | leukocyte and neutrophil counts [5]: do not display an increase | number of monocytes ([5]; mGM-CSF 125 μg per kg i.v. 4 hours before): increase in the number of monocytes
